Active and inactive are the calls of the source.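 How the source made its calls: active means compounds giving half or more protection of infected cells from virus-caused growth loss, again on retest; inactive means the rest.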
System: CEM cells HIV-1 protection, formazan growth assay
Test: NCI AIDS Antiviral Assay
Settings: for IC50: measured here: growth of uninfected CEM cells
Summary of the method: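 Protection of CEM cells against HIV-1 was scored from cell growth (soluble formazan) across five concentrations, with parallel uninfected cells. Lack of protection may reflect toxicity.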

Row | SMILES | EC50 [µM] | IC50 [µM] | outcome
1 | C[C@@H](CN1CC(=O)NC(=O)C1)N1CC(=O)NC(=O)C1 | > 933 | 91.2 | –
2 | CC1C(=NO)C(C)C(c2ccccc2)N(N=O)C1c1ccccc1 (stereo unspecified) | > 200 | > 200 | –
3 | Cn1cnc([N+](=O)[O-])c1Sc1nc2ccccc2[nH]1 | > 19.1 | 6.92 | –
4 | c1csc(-c2ccc(-c3ccc(-c4cccs4)s3)s2)c1 | > 200 | > 200 | –
5 | CC1(C)CNCC(C)(OCc2ccccc2)C(=O)NC(C)(C)CNCC(C)(OCc2ccccc2)C(=O)N1 (stereo unspecified) | 3.8 | 24.5 | –
6 | CSC1=N[C@H](c2ccccc2)CS1 | > 200 | > 200 | –
7 | O=C(NCCc1c(-c2ccccc2)[nH]c2ccccc12)C(F)(F)F | > 200 | 34.7 | –
8 | C=C1c2nc3ccccc3n2C=C(c2ccccc2)N1c1ccc(Cl)cc1 | > 200 | 32.4 | –
9 | CC(=O)[O-].CC(=O)[O-].O=C(N/N=C/c1cc(Cl)cc(Cl)c1[OH2+])c1ccncc1.[Co+2] | – | – | inactive
10 | Cc1cn(C(C)OCCO)c(=O)[nH]c1=O (stereo unspecified) | > 200 | > 200 | –
11 | COc1cc2c(cc1OC)NC(C)=CC(C)=N2 | > 200 | > 200 | –
12 | CC(=O)OCC1OC(n2c(-c3ccccc3)cc(-c3ccccc3)c(C#N)c2=O)C(OC(C)=O)C(OC(C)=O)C1OC(C)=O (stereo unspecified) | > 16.6 | > 16.6 | –
13 | NC(=S)Nc1cc(Cl)ccc1Cl | > 32.4 | > 32.4 | –
14 | CC12CC3CC(C)(C1)CC(SCCCCCN=C(N)CSSCC(N)=NCCCCCSC14CC5CC(C)(CC(C)(C5)C1)C4)(C3)C2 | > 200 | 26.9 | –
15 | CCOC(=S)SSC(=S)OCC | > 200 | 107 | –
16 | O=C(Nc1ccc(Cl)cc1Cl)C(=O)C(C(=O)c1ccc2ccccc2c1)C1OC(=O)c2ccccc21 (stereo unspecified) | > 50.1 | 25.7 | –
17 | NC(N)=NS(=O)(=O)c1ccc(NC(=O)c2cccc3c(Nc4ccc(S(=O)(=O)N=C(N)N)cc4)c4ccc(Cl)cc4nc23)cc1 | > 53.7 | > 53.7 | –
18 | Cc1cs/c(=N\C(P(=O)(O)O)P(=O)(O)O)n1C | > 100 | > 100 | –
19 | CC(C)(C)OC(=O)N1N=NC2C1C1CC(OCc3ccccc3)(OCc3ccccc3)C2O1 (stereo unspecified) | > 15.8 | > 15.8 | –
20 | Nc1nc(Cl)cc(OCC2(CO)CCCC2)n1 | > 200 | 110 | –
21 | COC1=C(C)C(=O)c2nc(COC(C)=O)ccc2C1=O | – | – | inactive
22 | CS(=O)(=O)c1ccc(N2CC2)nn1 | > 200 | 89.1 | –

Row | SMILES | EC50 [µM] | IC50 [µM] | outcome
23 | O=C(O)c1c(Cl)c(Cl)c(Cl)c(Cl)c1-c1c2ccc(=O)c(O)c-2oc2c(O)c(O)ccc12 | > 83.2 | 51.3 | –
24 | CCc1c(-c2ccccc2)[nH]c(=S)c(C#N)c1C | > 200 | > 200 | –
25 | O=C(Nc1cc2c(=O)oc3ccccc3c2oc1=O)c1cccnc1 | > 100 | > 100 | –
26 | O=C1c2ccccc2C(=O)c2c(S)cccc21 | 148 | > 200 | –
27 | COc1cc2c(SCCN(C)C)nc3ccccc3c2c2ccccc12 | – | – | inactive
28 | COC1/C=C/OC2(C)Oc3c(C)c(O)c4c(O)c(c(C=NN5CCCCCCCC5)c(O)c4c3C2=O)NC(=O)/C(C)=C/C=C/C(C)C(O)C(C)C(O)C(C)C(OC(C)=O)C1C (stereo unspecified) | – | – | inactive
29 | O=C1c2c(O)cccc2C(C2OC(CO)C(O)C(O)C2O)c2cc(CO)cc(O)c21 (stereo unspecified) | > 603 | 389 | –
30 | O=C=Nc1cc(S(=O)(=O)c2ccc(Cl)c(N=C=O)c2)ccc1Cl | > 200 | > 200 | –
31 | Cc1[nH]c(=O)nc2c1C(NCCCN(C)C)c1cc(Cl)ccc1N2 (stereo unspecified) | > 200 | 8.91 | –
32 | CCOc1ccccc1N=NC1C(=O)N(C(=O)CC(=O)Nc2ccccc2OC)N=C1C (stereo unspecified) | > 200 | > 200 | –
33 | CC1=C(O)C(=O)C2C(=O)C1C(C)C2c1ccc(C)cc1 (stereo unspecified) | > 251 | > 251 | –
34 | CN(CCO)CCN1c2ccccc2Sc2ccccc21 | – | – | inactive
35 | O=C(CSc1nnc(Cc2ccccc2)o1)Nc1ccccc1 | > 209 | > 209 | –
36 | c1ccc2c(c1)nnn2CNc1ccc(N2CCCCC2)cc1 | > 200 | 51.3 | –
37 | Cc1cc(O)c2c(c1)C(=O)C=C(Br)C2=O | > 100 | 1.58 | –
38 | CC1(C)CC(=O)C(/C=N/C(=S)Nc2ccc(S(N)(=O)=O)cc2)=C(O)C1 | > 200 | > 200 | –
39 | Cc1cc2nn(C3CCCO3)nc2cc1C (stereo unspecified) | > 200 | > 200 | –
40 | O=C1CC(C(O)CO)CC(=O)N1 (stereo unspecified) | > 200 | > 200 | –
41 | N=c1ccn2c(n1)OC1C(OC(=O)C34CC5CC(CC(C5)C3)C4)C(COC(=O)C34CC5CC(CC(C5)C3)C4)OC12 (stereo unspecified) | – | – | inactive
42 | Cc1cc2c(c3c1c1ccccc1n3C)C(=O)C=CC2=O | > 36.3 | 3.72 | –
43 | Cn1c(=O)cc(Nc2ccc(N)cc2)[nH]c1=O | > 200 | > 200 | –
44 | O=C(O)c1cnccc1-c1cc(=O)[nH]n1-c1ccccc1 | > 200 | 30.2 | –

Row | SMILES | EC50 [µM] | IC50 [µM] | outcome
45 | COC(=O)/C=C\C(C#N)(C#N)N=Cc1cccc(OC)c1 | > 20 | 1.26 | –
46 | CS(=O)(=O)NNS(=O)(=O)c1cccc([N+](=O)[O-])c1 | > 617 | > 617 | –
47 | CCOC(=O)C(C)(C)Oc1ccc2c(=O)cc(-c3ccccc3)oc2c1 | > 53.7 | 36.3 | –
48 | CCOc1cnc([C@H]2CCC3[C@@H]4CC=C5C[C@@H](OC(C)=O)CC[C@]5(C)C4CC[C@@]32C)s1 (stereo partly specified) | > 21.4 | > 21.4 | –
49 | CC(=O)O[C@@H]1[C@H](OC2CCCCC2(c2ccccc2)c2ccccc2)O[N+]([O-])=CC12CCCCC2 (stereo partly specified) | > 200 | 2.69 | –
50 | COc1cccc2c1OC(c1ccc(C#N)cc1)C([N+](=O)[O-])=C2 (stereo unspecified) | > 200 | 1.58 | –
51 | N#CC1C2C1C1C=CC2n2c(=O)n(-c3ccccc3)c(=O)n21 (stereo unspecified) | > 200 | > 200 | –
52 | COC(=O)CC1NC(=O)C1C(C)O[Si](C)(C)C(C)(C)C (stereo unspecified) | > 603 | 288 | –
53 | COc1ccc2c(c1OC)C(=O)c1cc(C(C)O)oc1C2=O (stereo unspecified) | – | – | inactive
54 | C[CH2][Sn]1([CH2]C)[O]C(=O)[O][Sn]([CH2]C)([CH2]C)[O]1 | > 8.32 | 2.24 | –
55 | C=CC[C@@]12CC(C=CC13OCCO3)OC(=O)[C@@H]2C | > 200 | > 200 | –
56 | O=C(O)Cc1cc(=O)[nH]c2c1C(=O)CCC2 | – | – | inactive
57 | COC1=CC(=O)C(Br)=CC1=O | – | – | inactive
58 | N#CC1C2C=CC(CCC2)C1C#N (stereo unspecified) | > 200 | > 200 | –
59 | CC(C)C(Sc1nc(-c2ccccc2)c(-c2ccccc2)[nH]1)C(=O)NN (stereo unspecified) | > 10.2 | 4.9 | –
60 | COC(=O)Cc1c([C@H]2[C@H](CC(=O)OC)c3ccccc3N2S(=O)(=O)c2ccc(C)cc2)[nH]c2ccccc12 | > 102 | 11.5 | –
61 | O=C(O)CN1CCNCCN(CP(=O)(O)O)CC1 | > 200 | 10.5 | –
62 | COC(=O)c1cc2ccccc2c(CS(=O)(=O)O)c1O | > 200 | 56.2 | –
63 | O=C(O)C12C3CCC(CC3)C1(C(=O)O)C1CCC2C1 (stereo unspecified) | > 200 | > 200 | –
64 | Nc1ccc(Cl)cc1C(=O)N1CCN(c2ccc([N+](=O)[O-])cn2)CC1 | > 132 | 27.5 | –
65 | CCN(CC)Cc1nc(C2CCC([N+](=O)[O-])O2)no1 (stereo unspecified) | > 200 | 72.4 | –

Source: PubChem BioAssay AID179 (DTP/NCI, 2004)
